Blank lines part the entries; values can stand above or below the compound they belong to.
Columns and labels:
[1] = biological target: T1, Serine/threonine-protein kinase LATS2 (Homo sapiens) (UniProt Q9NRM7); experiment: Selectivity interaction (LanthaScreen Eu Kinase Binding Assay) EUB0001632a LATS2; conditions: at 10 µM
T1 sequence (whole entry): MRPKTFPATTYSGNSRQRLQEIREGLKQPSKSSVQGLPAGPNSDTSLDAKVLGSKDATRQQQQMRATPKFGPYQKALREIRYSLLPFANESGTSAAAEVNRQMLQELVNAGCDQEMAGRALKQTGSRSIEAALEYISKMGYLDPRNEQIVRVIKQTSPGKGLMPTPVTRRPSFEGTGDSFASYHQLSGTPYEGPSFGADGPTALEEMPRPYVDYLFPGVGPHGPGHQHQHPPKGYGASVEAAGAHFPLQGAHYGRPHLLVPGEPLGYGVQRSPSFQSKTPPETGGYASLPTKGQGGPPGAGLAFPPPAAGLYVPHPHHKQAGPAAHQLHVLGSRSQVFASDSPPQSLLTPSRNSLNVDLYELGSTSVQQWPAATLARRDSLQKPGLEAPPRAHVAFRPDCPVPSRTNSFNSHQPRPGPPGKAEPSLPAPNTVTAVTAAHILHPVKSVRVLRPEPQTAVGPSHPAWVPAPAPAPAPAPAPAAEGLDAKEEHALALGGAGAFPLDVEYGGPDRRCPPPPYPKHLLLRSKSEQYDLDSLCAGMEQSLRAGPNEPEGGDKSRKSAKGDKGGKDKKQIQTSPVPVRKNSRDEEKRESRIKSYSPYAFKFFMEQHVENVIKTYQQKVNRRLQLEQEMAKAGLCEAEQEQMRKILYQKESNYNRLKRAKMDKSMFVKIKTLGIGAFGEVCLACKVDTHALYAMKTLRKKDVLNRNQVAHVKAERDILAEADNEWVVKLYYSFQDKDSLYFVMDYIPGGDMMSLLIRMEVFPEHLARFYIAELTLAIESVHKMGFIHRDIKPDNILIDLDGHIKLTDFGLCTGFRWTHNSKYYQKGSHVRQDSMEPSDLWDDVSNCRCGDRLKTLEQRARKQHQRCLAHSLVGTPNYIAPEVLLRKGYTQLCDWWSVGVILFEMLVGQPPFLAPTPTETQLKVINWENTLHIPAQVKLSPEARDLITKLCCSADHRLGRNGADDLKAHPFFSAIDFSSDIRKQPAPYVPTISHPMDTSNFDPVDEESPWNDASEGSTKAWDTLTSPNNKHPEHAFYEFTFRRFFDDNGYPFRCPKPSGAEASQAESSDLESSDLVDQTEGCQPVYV

[2] = biological target: Activin receptor type-1-like (Homo sapiens) (UniProt P37023); conditions: at 10 µM
Sequence of Activin receptor type-1-like (Homo sapiens) (P37023 whole entry): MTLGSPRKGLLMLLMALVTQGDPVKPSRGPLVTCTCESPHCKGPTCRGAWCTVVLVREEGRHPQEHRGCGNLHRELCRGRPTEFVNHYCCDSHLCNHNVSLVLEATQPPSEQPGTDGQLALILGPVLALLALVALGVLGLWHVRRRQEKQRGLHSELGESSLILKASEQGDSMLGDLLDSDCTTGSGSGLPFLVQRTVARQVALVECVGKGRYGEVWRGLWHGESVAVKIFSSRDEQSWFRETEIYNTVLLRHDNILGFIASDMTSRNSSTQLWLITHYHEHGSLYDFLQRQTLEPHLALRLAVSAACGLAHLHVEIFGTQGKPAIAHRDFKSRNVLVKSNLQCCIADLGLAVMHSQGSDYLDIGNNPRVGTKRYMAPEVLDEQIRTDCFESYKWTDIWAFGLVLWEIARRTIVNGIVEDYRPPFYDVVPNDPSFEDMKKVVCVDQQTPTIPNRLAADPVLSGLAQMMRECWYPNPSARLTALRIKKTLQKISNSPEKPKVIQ

[3] = biological target: T2, Cyclin-G-associated kinase (Homo sapiens) (UniProt O14976); experiment: Selectivity interaction (Kinase panel (DSF assay)) EUB0001558a GAK
T2 sequence (whole entry): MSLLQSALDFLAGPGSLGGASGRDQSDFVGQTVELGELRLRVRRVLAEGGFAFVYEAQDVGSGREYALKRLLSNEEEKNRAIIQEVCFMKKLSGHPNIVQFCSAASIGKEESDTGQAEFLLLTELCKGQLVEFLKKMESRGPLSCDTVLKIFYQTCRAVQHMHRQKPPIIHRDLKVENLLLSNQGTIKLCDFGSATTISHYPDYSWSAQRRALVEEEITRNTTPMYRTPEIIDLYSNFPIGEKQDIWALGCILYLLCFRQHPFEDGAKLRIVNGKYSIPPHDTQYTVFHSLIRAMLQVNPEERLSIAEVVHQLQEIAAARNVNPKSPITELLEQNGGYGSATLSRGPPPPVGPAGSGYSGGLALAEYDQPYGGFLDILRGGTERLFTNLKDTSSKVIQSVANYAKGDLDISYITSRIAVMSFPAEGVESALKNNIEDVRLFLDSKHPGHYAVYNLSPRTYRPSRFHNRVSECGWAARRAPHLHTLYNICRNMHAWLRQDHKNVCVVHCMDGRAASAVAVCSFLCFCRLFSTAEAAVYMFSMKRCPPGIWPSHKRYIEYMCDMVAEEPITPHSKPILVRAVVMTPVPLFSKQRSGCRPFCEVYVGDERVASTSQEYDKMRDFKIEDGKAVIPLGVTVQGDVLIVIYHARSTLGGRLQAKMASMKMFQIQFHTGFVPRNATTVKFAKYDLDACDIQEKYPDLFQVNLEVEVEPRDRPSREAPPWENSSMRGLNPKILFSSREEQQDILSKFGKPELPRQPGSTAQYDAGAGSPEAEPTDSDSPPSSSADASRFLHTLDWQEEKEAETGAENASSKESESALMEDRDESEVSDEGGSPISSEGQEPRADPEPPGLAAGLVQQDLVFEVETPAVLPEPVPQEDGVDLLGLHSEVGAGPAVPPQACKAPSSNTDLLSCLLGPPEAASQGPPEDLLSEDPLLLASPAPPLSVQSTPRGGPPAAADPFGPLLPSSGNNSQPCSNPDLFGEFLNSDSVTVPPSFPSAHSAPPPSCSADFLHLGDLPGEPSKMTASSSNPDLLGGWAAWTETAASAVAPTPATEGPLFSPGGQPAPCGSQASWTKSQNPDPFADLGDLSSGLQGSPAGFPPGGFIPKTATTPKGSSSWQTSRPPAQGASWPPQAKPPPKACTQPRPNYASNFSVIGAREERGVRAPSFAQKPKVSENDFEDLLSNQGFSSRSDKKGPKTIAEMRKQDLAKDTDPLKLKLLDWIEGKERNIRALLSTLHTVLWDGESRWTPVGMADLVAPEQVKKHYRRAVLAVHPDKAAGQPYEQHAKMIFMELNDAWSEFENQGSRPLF

[4] = biological target: Serine/threonine-protein kinase 26 (Homo sapiens, UniProt Q9P289); experiment: Selectivity interaction (KinomeScan (DiscoverX)) EUB0000655a STK26; conditions: at 10 µM
Sequence of Serine/threonine-protein kinase 26 (Q9P289 2-416 limits assumed): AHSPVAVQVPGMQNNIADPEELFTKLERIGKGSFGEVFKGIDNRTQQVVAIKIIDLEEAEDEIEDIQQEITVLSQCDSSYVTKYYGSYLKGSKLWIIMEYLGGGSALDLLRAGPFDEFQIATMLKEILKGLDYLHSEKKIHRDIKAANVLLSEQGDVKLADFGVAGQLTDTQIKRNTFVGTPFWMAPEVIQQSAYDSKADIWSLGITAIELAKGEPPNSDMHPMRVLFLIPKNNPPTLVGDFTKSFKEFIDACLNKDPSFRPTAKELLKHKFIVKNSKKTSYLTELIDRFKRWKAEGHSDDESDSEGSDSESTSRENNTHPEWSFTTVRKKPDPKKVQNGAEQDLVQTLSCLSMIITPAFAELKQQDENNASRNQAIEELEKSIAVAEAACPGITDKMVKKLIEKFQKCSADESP

[5] = biological target: Ribosomal protein S6 kinase alpha-4 (Homo sapiens) (UniProt O75676); experiment: Selectivity interaction (KinomeScan (DiscoverX)) EUB0000655a RPS6KA4; conditions: at 10 µM
[6] = biological target: Leucine-rich repeat serine/threonine-protein kinase 2 (Homo sapiens, UniProt Q5S007); conditions: at 10 µM
Sequence of Leucine-rich repeat serine/threonine-protein kinase 2 (Q5S007 whole entry): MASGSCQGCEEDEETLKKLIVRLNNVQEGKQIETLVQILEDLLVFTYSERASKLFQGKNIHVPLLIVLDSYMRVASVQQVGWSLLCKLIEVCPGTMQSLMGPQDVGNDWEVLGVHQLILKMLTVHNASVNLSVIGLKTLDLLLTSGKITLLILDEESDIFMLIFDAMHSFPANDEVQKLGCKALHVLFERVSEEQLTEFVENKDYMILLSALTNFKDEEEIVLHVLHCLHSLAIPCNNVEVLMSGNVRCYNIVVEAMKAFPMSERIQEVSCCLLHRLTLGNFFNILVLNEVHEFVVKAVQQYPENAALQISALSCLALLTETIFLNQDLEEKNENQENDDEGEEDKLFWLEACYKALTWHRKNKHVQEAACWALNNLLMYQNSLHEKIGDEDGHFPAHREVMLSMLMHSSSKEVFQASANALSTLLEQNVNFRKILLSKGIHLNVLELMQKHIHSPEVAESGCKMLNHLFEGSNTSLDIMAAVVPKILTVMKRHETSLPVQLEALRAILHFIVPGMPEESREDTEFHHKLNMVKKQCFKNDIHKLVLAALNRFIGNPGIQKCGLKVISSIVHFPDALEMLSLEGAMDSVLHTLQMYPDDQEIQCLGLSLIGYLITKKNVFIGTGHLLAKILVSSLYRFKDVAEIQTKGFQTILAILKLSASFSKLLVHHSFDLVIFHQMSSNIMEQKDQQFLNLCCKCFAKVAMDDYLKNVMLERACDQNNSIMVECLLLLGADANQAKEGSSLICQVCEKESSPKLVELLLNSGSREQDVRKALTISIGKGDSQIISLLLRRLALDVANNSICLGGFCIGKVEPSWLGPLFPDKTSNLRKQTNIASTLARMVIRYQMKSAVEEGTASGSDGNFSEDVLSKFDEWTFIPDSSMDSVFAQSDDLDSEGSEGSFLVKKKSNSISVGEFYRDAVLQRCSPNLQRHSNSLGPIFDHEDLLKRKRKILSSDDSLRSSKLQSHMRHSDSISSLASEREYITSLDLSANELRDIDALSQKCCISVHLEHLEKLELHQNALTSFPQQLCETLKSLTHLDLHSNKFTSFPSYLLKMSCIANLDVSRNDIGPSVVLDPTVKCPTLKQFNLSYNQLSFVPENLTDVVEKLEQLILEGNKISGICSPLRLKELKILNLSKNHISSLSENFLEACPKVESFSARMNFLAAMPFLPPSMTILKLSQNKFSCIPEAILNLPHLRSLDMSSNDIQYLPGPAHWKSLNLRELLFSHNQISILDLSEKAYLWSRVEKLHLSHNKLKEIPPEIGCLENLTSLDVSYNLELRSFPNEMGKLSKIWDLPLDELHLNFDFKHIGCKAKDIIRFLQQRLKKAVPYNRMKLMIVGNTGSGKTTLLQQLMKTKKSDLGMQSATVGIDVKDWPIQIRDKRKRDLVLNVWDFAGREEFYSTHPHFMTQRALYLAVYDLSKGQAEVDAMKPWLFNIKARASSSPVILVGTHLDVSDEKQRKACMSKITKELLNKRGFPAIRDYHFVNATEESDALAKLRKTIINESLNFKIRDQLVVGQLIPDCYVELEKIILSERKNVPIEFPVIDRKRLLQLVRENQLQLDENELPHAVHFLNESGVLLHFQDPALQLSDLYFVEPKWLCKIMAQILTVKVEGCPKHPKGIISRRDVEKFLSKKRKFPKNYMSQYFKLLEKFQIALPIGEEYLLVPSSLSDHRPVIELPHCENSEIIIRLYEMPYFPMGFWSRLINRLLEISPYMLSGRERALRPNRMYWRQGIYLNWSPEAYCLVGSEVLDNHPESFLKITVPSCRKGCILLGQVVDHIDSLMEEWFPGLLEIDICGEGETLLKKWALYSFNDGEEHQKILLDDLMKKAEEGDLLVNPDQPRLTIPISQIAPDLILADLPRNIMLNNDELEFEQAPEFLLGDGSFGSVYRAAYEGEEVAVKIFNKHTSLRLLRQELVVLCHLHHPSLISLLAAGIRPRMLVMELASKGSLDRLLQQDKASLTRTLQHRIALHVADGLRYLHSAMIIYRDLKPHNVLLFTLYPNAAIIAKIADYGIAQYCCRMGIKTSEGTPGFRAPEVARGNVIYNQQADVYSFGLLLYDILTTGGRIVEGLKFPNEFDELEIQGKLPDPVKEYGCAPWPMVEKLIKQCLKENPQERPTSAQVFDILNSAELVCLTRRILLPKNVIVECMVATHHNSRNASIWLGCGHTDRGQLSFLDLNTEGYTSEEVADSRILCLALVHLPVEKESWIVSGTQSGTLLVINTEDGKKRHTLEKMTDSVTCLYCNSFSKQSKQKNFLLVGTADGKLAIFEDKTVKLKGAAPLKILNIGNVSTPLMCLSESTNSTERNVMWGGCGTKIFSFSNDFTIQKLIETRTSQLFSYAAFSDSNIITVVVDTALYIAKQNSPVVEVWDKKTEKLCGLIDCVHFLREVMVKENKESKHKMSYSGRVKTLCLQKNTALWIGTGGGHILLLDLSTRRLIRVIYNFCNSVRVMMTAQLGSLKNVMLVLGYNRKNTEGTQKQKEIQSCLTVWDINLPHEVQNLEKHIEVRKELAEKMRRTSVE

[7] = biological target: Mitogen-activated protein kinase kinase kinase kinase 1 (Homo sapiens) (UniProt Q92918); experiment: Selectivity interaction (ActivX KiNativ screen (ex vivo kinase selectivity in human PBMCs)) EUB0001619a MAP4K1; format: cell-based; conditions: PBMC, at 1 µM
Sequence of Mitogen-activated protein kinase kinase kinase kinase 1 (Homo sapiens) (Q92918 whole entry, looked up): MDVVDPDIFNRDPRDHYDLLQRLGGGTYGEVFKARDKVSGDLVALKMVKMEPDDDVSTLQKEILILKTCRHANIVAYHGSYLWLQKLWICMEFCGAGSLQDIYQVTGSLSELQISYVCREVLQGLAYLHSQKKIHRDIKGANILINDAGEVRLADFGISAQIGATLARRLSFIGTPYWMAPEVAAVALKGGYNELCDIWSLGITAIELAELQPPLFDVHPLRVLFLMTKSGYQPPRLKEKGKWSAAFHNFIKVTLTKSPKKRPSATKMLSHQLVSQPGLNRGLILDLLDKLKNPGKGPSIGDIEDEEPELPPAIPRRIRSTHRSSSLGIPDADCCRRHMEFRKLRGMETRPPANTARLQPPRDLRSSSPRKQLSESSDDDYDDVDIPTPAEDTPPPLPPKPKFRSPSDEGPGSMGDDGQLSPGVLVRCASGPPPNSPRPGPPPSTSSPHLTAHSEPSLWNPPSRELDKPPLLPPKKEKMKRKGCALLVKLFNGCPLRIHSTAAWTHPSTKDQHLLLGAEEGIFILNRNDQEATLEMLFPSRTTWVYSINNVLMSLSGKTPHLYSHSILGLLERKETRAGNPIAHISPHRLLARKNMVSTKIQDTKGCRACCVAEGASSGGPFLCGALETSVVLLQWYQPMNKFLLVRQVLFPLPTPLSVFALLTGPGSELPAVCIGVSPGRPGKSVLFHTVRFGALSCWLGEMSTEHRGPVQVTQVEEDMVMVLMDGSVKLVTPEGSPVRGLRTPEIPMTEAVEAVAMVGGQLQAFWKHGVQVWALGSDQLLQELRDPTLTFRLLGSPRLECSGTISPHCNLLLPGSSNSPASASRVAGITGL

[8] = biological target: Serine/threonine-protein kinase RIO2 (Homo sapiens) (UniProt Q9BVS4); experiment: Selectivity interaction (KinomeScan (DiscoverX)) EUB0001619a RIOK2; conditions: at 1 µM
Sequence of Serine/threonine-protein kinase RIO2 (Homo sapiens) (Q9BVS4 whole entry, looked up): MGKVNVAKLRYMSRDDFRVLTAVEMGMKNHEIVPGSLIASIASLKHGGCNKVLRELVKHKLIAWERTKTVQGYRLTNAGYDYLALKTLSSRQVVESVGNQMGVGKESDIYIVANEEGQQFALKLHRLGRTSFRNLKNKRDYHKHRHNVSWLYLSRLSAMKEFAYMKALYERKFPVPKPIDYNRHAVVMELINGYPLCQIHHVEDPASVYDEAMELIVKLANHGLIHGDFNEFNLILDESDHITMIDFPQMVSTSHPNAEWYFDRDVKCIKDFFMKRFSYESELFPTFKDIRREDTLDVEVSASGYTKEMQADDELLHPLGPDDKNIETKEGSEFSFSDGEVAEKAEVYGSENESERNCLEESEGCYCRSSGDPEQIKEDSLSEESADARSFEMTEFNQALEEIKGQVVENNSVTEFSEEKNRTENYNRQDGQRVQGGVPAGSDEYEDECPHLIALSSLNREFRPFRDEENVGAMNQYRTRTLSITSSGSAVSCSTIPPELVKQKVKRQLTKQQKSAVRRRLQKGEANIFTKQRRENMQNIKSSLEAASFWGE

- % of inhibition [1]: 1.75%
SMILES: Cn1cc(-n2cnc3c(NCc4nc5cc(Cl)c(Cl)cc5[nH]4)nc(N4CCOCC4)nc32)cn1

- % of control [2]: 100%
SMILES: CCN(CC)CCCCNc1ncc2cc(-c3cc(OC)cc(OC)c3)c(NC(=O)NC(C)(C)C)nc2n1

SMILES: CC(C)(O)[C@H](F)CN1Cc2cc(NC(=O)c3cnn4cccnc34)c(N3CCOCC3)cc2C1=O
- dTM [3]: 2.3 K

SMILES: CN(C)CCOc1ccc(-c2nc(-c3ccncc3)c(-c3ccc4c(c3)CC/C4=N\O)[nH]2)cc1
- % of control [4]: 91%
- % of control [5]: 81%

SMILES: Cc1cc([C@@H](C)Nc2ccccc2C(=O)O)c2nc(N3CCOCC3)cc(=O)n2c1 [AZD-6482]
- % of control [6]: 100%

SMILES: N#Cc1cccc(-c2c[nH]c3ncnc(N4CCOCC4)c23)c1
- % of inhibition [7]: 26%
- % of control [8]: 75%

From ChEMBL document CHEMBL5465560, “Selectivity Literature for EUbOPEN Chemogenomic Library” (2024)
